Several values for one entry are separate records, joined by “and”; a condition that tells them apart may be missing. Identical values can stand only once.
How the values were obtained:
Experiment in all cases: area under concentration-response curve (viability) (AUC (a.u.)); higher = less active
Conditions in all cases: 48 h
CU-ACC1 = system: CU-ACC1
Procedure, shortened: (§1)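 In 1,536-well plates, 500–1,000 cells/well of three adrenocortical carcinoma cell lines in 5 µL medium received 23 nL of each library compound across 11 concentrations. At 48 h, CellTiter-Glo was incubated for 15 minutes at room temperature and luminescence measured. Per-plate normalisation used vehicle and empty-well controls, and only inhibitory or non-responding curve classes were kept when fitting concentration-response curves for AC50 and area under the curve.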

CU-ACC2 = system: CU-ACC2
Procedure, shortened: as §1

NCI-H295R = system: NCI-H295R
Procedure, shortened: as §1

CN(Cc1ccccc1)C(=O)c1ccc([S+](=O)([O-])Nc2ccccc2)cc1
area under concentration-response curve (CU-ACC1): 491
area under concentration-response curve (CU-ACC2): 550
area under concentration-response curve (NCI-H295R): 519

Cn1ncc2cc(-c3cnc(N)c(Cl)c3N3CCC4(CCNC4=O)CC3)ccc21
area under concentration-response curve (CU-ACC1): 475
area under concentration-response curve (CU-ACC2): 484
area under concentration-response curve (NCI-H295R): 536

NC[C@H]1O[C@H](O[C@H]2[C@H](O)[C@@H](O[C@H]3O[C@H](CO)[C@@H](O)[C@H](N)[C@H]3O)[C@H](N)C[C@@H]2N)[C@H](N)C[C@@H]1O
area under concentration-response curve (CU-ACC1): 486
area under concentration-response curve (CU-ACC2): 579
area under concentration-response curve (NCI-H295R): 535

COc1ccc([C@@H]2CC(=O)c3c(O)cc(O[C@@H]4O[C@H](CO[C@@H]5O[C@@H](C)[C@H](O)[C@@H](O)[C@H]5O)[C@@H](O)[C@H](O)[C@H]4O)cc3O2)cc1O
area under concentration-response curve (CU-ACC1): 480
area under concentration-response curve (CU-ACC2): 593
area under concentration-response curve (NCI-H295R): 547

CCOC1=CC=C(C=C1)N2C(=O)C3=CC=CN=C3/N=C2/[C@@H](C)N(CC4=CC=CN=C4)C(=O)CC5=CC=C(F)C(=C5)C(F)(F)F
area under concentration-response curve (CU-ACC1): 516
area under concentration-response curve (CU-ACC2): 606
area under concentration-response curve (NCI-H295R): 569

C\C1=N\N(C(=O)C1)C2=CC=CC=C2
area under concentration-response curve (CU-ACC1): 492
area under concentration-response curve (CU-ACC2): 585
area under concentration-response curve (NCI-H295R): 478

CCOCC(O)COc1ccc(NC(=O)CC[S+](C)C)cc1 (stereo not drawn)
area under concentration-response curve (CU-ACC1): 367
area under concentration-response curve (CU-ACC2): 394
area under concentration-response curve (NCI-H295R): 411

COc1ccc2cccc(CCNC(C)=O)c2c1
area under concentration-response curve (CU-ACC1): 515
area under concentration-response curve (CU-ACC2): 589
area under concentration-response curve (NCI-H295R): 579

N=C1S/C(=C\c2ccc(-c3ccc4c(c3)C(=O)NC4=O)o2)C(=O)N1c1ccc(Br)cc1
area under concentration-response curve (CU-ACC1): 563
area under concentration-response curve (CU-ACC2): 675
area under concentration-response curve (NCI-H295R): 618

OC1=C(Cl)C=C(N\C2=C(\C(=O)NC2=O)C3=C(C=CC=C3)[N+]([O-])=O)C=C1
area under concentration-response curve (CU-ACC1): 502
area under concentration-response curve (CU-ACC2): 475
area under concentration-response curve (NCI-H295R): 507

O=C(O)CNC(=O)c1ncc(-c2cccc(Cl)c2)cc1O
area under concentration-response curve (CU-ACC1): 486
area under concentration-response curve (CU-ACC2): 568
area under concentration-response curve (NCI-H295R): 516

O=C(NCC1CCOCC1)c1cnc(Nc2ccc(Cl)cc2Cl)nc1C(F)(F)F
area under concentration-response curve (CU-ACC1): 399
area under concentration-response curve (CU-ACC2): 562
area under concentration-response curve (NCI-H295R): 525

CC[C@H](NC(=O)[C@H](C[S+](=O)([O-])CC1CC1)N[C@@H](c1ccc(F)cc1)C(F)(F)F)C(=O)C(=O)NC1CC1
area under concentration-response curve (CU-ACC1): 534
area under concentration-response curve (CU-ACC2): 510
area under concentration-response curve (NCI-H295R): 538

CC(NCCc1ccc(O)cc1)C(O)c1ccc(O)cc1 (stereo not drawn)
area under concentration-response curve (CU-ACC1): 523
area under concentration-response curve (CU-ACC2): 592
area under concentration-response curve (NCI-H295R): 496

CC[C@H](/C=C/[C@@H](C)[C@H]1CC[C@H]2[C@@H]3CC=C4C[C@@H](O)CC[C@]4(C)[C@H]3CC[C@]12C)C(C)C
area under concentration-response curve (CU-ACC1): 550
area under concentration-response curve (CU-ACC2): 612
area under concentration-response curve (NCI-H295R): 602

C[C@]12CCC(=O)C(O)=C1CC[C@@H]1[C@@H]2CC[C@]2(C)C(=O)CC[C@@H]12
area under concentration-response curve (CU-ACC1): 404
area under concentration-response curve (CU-ACC2): 470
area under concentration-response curve (NCI-H295R): 417

O=C(Cc1ccccc1)Nc1nnc(CCSCCc2nnc(NC(=O)Cc3ccccc3)s2)s1
area under concentration-response curve (CU-ACC1): 509
area under concentration-response curve (CU-ACC2): 532
area under concentration-response curve (NCI-H295R): 507

COc1ccc(CC2c3cc(OC)c(OC)cc3CC[N+]2(C)CCC(=O)OCCCCCOC(=O)CC[N+]2(C)CCc3cc(OC)c(OC)cc3C2Cc2ccc(OC)c(OC)c2)cc1OC (stereo not drawn)
area under concentration-response curve (CU-ACC1): 449
area under concentration-response curve (CU-ACC2): 494
area under concentration-response curve (NCI-H295R): 474

CC(C)(C)C(=O)Oc1ccc2c(c1)nc(NC(=O)c1cccc([N+](=O)[O-])c1)n2CCCO
area under concentration-response curve (CU-ACC1): 506
area under concentration-response curve (CU-ACC2): 584
area under concentration-response curve (NCI-H295R): 525

CC(=O)OCCN1C(=O)c2c(C)nc3ccc([S+](=O)([O-])N4CCOCC4)cc3c2C1=O
area under concentration-response curve (CU-ACC1): 547
area under concentration-response curve (CU-ACC2): 653
area under concentration-response curve (NCI-H295R): 581

NC1=NC(=C(C#N)C(=N1)N)N[C@@H](C2CC2)\C3=N\C4=C(C(=CC=C4F)Cl)C(=O)N3C5=CC=CN=C5
area under concentration-response curve (CU-ACC1): 511
area under concentration-response curve (CU-ACC2): 570
area under concentration-response curve (NCI-H295R): 526

C[C@]12CC[C@@H]3c4ccc(O)cc4CC[C@H]3[C@@H]1[C@@H](O)[C@@H](O)[C@@H]2O
area under concentration-response curve (CU-ACC1): 494
area under concentration-response curve (CU-ACC2): 565
area under concentration-response curve (NCI-H295R): 520

COc1ccc2c(c1)CC[C@@H](CN(C)CC(=O)O)[C@H]2c1ccccc1
area under concentration-response curve (CU-ACC1): 487
area under concentration-response curve (CU-ACC2): 514
area under concentration-response curve (NCI-H295R): 464

CN(CCOc1ccc(C[C@H](Nc2ccccc2C(=O)c2ccccc2)C(=O)O)cc1)c1ccccn1
area under concentration-response curve (CU-ACC1): 429 and 437
area under concentration-response curve (CU-ACC2): 413
area under concentration-response curve (NCI-H295R): 388 and 454

NCCCC(N)(C(=O)O)C(F)F (stereo not drawn)
area under concentration-response curve (CU-ACC1): 443
area under concentration-response curve (CU-ACC2): 514
area under concentration-response curve (NCI-H295R): 491

C\C1=C(\C=C(\C#N)C(=O)N1)C2=CC=NC=C2
area under concentration-response curve (CU-ACC1): 532
area under concentration-response curve (CU-ACC2): 515
area under concentration-response curve (NCI-H295R): 543

OC[C@H]1O[C@H](C[C@@H]1O)N2/C=C(C(=O)NC2=O)/C(F)(F)F
area under concentration-response curve (CU-ACC1): 538
area under concentration-response curve (CU-ACC2): 650
area under concentration-response curve (NCI-H295R): 583

ClC1=CC=C2N/C3=N/C(=O)CN3CC2=C1Cl
area under concentration-response curve (CU-ACC1): 519
area under concentration-response curve (CU-ACC2): 626
area under concentration-response curve (NCI-H295R): 542

COC1=C(N2CCNC(C)C2)C(=CC3=C1N(\C=C(C(O)=O)/C3=O)C4CC4)F (stereo not drawn)
area under concentration-response curve (CU-ACC1): 543
area under concentration-response curve (CU-ACC2): 609
area under concentration-response curve (NCI-H295R): 509

Cn1cnc(N)c2ncnc1-2
area under concentration-response curve (CU-ACC1): 438
area under concentration-response curve (CU-ACC2): 467
area under concentration-response curve (NCI-H295R): 448

Oc1ccc(C2CNCCc3c2cc(O)c(O)c3Cl)cc1 (stereo not drawn)
area under concentration-response curve (CU-ACC1): 468
area under concentration-response curve (CU-ACC2): 538
area under concentration-response curve (NCI-H295R): 524

Cc1cn2cc(C(=O)N(C)CCO)cc(N[C@@H]3CCOc4cccc(C)c43)c2n1
area under concentration-response curve (CU-ACC1): 534
area under concentration-response curve (CU-ACC2): 620
area under concentration-response curve (NCI-H295R): 581

CCN(CCCOc1ccc2c(Nc3cc(CC(=O)Nc4cccc(F)c4)[nH]n3)ncnc2c1)CCOP(=O)(O)O
area under concentration-response curve (CU-ACC1): 471
area under concentration-response curve (CU-ACC2): 579
area under concentration-response curve (NCI-H295R): 495

Cn1cc(-c2ccc3nnc(C(F)(F)c4ccc5ncccc5c4)n3n2)cn1
area under concentration-response curve (CU-ACC1): 478
area under concentration-response curve (CU-ACC2): 583
area under concentration-response curve (NCI-H295R): 502

C\C1=C(\SSC1=S)C2=CN=CC=N2
area under concentration-response curve (CU-ACC1): 524
area under concentration-response curve (CU-ACC2): 618
area under concentration-response curve (NCI-H295R): 569

COC1=CC=C(C=C1)C(=O)C2CCN(CC2)CC(=O)N(CC3CC3)C\C4=N\C5=C(\COCC5)C(=O)N4
area under concentration-response curve (CU-ACC1): 495
area under concentration-response curve (CU-ACC2): 564
area under concentration-response curve (NCI-H295R): 520

C[S+](=O)([O-])Nc1ccc([N+](=O)[O-])cc1Oc1ccccc1
area under concentration-response curve (CU-ACC1): 544
area under concentration-response curve (CU-ACC2): 639
area under concentration-response curve (NCI-H295R): 583

Cn1c(COP(=O)(NCCBr)NCCBr)cnc1[N+](=O)[O-]
area under concentration-response curve (CU-ACC1): 394
area under concentration-response curve (CU-ACC2): 575
area under concentration-response curve (NCI-H295R): 514

CCCCn1c(=O)n(Cc2ccccc2F)c(=O)c2nc(Cc3ccc(NC(C)=O)cc3)[nH]c21
area under concentration-response curve (CU-ACC1): 491
area under concentration-response curve (CU-ACC2): 543
area under concentration-response curve (NCI-H295R): 531

OC[C@H]1OCC(O1)[N@@]2C=CC(N)=NC2=O (stereo partly drawn)
area under concentration-response curve (CU-ACC1): 423
area under concentration-response curve (CU-ACC2): 451
area under concentration-response curve (NCI-H295R): 494

C[C@H]1O[C@H](O[C@H]2[C@H](O)[C@@H](O)[C@@H](O[C@H]3[C@H](O)[C@@H](O)C(O)O[C@@H]3CO)O[C@@H]2CO)[C@H](O)[C@@H](O)[C@@H]1N[C@H]1C=C(CO)[C@@H](O)[C@H](O)[C@H]1O (stereo partly drawn)
area under concentration-response curve (CU-ACC1): 414
area under concentration-response curve (CU-ACC2): 482
area under concentration-response curve (NCI-H295R): 447

O=[S+]([O-])(c1cccc2cnccc12)N1CCCNCC1
area under concentration-response curve (CU-ACC1): 502
area under concentration-response curve (CU-ACC2): 560
area under concentration-response curve (NCI-H295R): 534

C[C@](N)(Cc1ccc(O)c(O)c1)C(=O)O
area under concentration-response curve (CU-ACC1): 475
area under concentration-response curve (CU-ACC2): 477
area under concentration-response curve (NCI-H295R): 524

O=C1CCc2ccc(OCCCCN3CCN(c4cccc(Cl)c4Cl)CC3)cc2N1
area under concentration-response curve (CU-ACC1): 468
area under concentration-response curve (CU-ACC2): 593
area under concentration-response curve (NCI-H295R): 544

O=C(C1CCCCC1)N1CC(=O)N2CCc3ccccc3C2C1 (stereo not drawn)
area under concentration-response curve (CU-ACC1): 555
area under concentration-response curve (CU-ACC2): 631
area under concentration-response curve (NCI-H295R): 544

CCC(C)(Oc1ccc(C2(c3ccc(OC(C)(CC)C(=O)O)cc3)CCCCC2)cc1)C(=O)O (stereo not drawn)
area under concentration-response curve (CU-ACC1): 500
area under concentration-response curve (CU-ACC2): 572
area under concentration-response curve (NCI-H295R): 470
